Experimental data as given in patent US12594267B2, “Capsid inhibitors for the treatment of HIV” (Gilead Sciences, Inc., priority 2018, dated 2026).
Read-outs that look alike come from different tables or passages of the source.

Assay: PK after subcutaneous administration of solutions in dogs
Assay type: in vivo, Beagle dog
Details: dog, plasma, sc, dog, mean ± SD, n=3; for concentration at 56 d: read-out: C56d
Method: Formulations containing the compound of Formula (Ia) were prepared as aqueous solutions or oral formulations and administered subcutaneously to rats, dogs, cynomolgus monkey, and/or rhesus monkey.
A solution of the compound of Formula (Ia) in 10% ethanol, 13% water, and 77% PEG 200 (400 mg/mL) was prepared. The solution was administered subcutaneously to dogs at a dose of 12 mg/kg and rats at a dose of 50 mg/kg and the pharmacokinetic (PK) profile was determined. […] In both species, plasma concentrations of the compound of Formula (Ia) were maintained above the target trough concentration of 20 nM (corresponding to an IQ of 5) for at least 84 days (12 weeks).
A solution of the compound of Formula (Ia) in 15% water and 85.0 PEG 300 (400 mg/mL) was prepared. The solution was administered subcutaneously to male beagle dogs at a dose level of 12 mg/kg and dose volume of […] and the pharmacokinetic (PK) profile was determined.
A solution of the compound of Formula (a) sodium salt in water and 300 (300 mg/mL) was prepared that contained 22.6% water/50% PEG 300/1.1% NaOH/26.3% Formula (Ia). The solution was administered subcutaneously to male beagle dogs at a dose level of 12 mg/kg and dose volume of […] and the pharmacokinetic (PK) profile was determined.
A 300 mg/ml solution of a compound of Formula (Ia) having 9.8 w/w % water, 65.0 w/w % PEG 300, and 25.2 w/w % of the compound of Formula (Ia) was prepared. The solution was administered subcutaneously to rats at a dose of 50 mg/kg and to dogs at a dose of 12 mg/kg and the pharmacokinetic (PK) profile was determined. […] In the rat, plasma concentrations of the compound of Formula (Ia) were maintained above the target trough concentration of 20 nM for at least 168 days (24 weeks). In the dog, plasma concentrations of the compound of Formula (Ia) were maintained above the target trough concentration of 20 nM for at least 84 days (12 weeks).
(§1) A 150 mg/ml solution of a compound of Formula (Ia) having 27.92 w/w % water, 58.04 w/w % PEG 300, 13.47 w/w % of a compound of Formula (Ia), and 1.1 w/w % NaOH was prepared. The solution was administered subcutaneously to rats at a dose of 50 mg/kg and to dogs at a dose of 12 mg/kg and the pharmacokinetic (PK) profile was determined. […] In the rat, plasma concentrations of the compound of Formula (Ia) were maintained above the target trough concentration of 20 nM for at least 126 days (18 weeks). In the dog, plasma concentrations of the compound of Formula (Ia) were maintained above the target trough concentration of 20 nM for at least 56 days (8 weeks).
as §1, with “300” for “150”, “23.2” for “27.92”, “50.0” for “58.04”, “25.7” for “13.47”
A 50 mg/ml solution of a compound of Formula (Ia) having 30.07 w/w % water, 64.40 w/w % PEG 300, 4.68 w/w % of a sodium salt of the compound of Formula (Ia), and 0.85 w/w % poloxamer 188 was prepared. The solution was administered subcutaneously to rats at a dose of 50 mg/kg and to dogs at a dose of 6 mg/kg and the pharmacokinetic (PK) profile was determined. […] In the rat, plasma concentrations of the compound of Formula (Ia) were maintained above the target trough concentration of 20 nM for at least 28 days (4 weeks). In the dog, plasma concentrations of the compound of Formula (Ia) were maintained above the target trough concentration of 20 nM for at least 14 days (2 weeks). […]

[1] = Beagle, 6 mg/kg, SC 6 mg/kg, 150 mg/mL solution (w/w %: 26.6 water, 56.97 PEG 300, 13.39 Formula (Ia), 0.57 NaOH, 2.49 poloxamer 188)
[2] = beagle, 6 mg/kg, SC 6 mg/kg, 300 mg/mL solution (w/w %: 21.97 water, 47.05 PEG 300, 25.21 Formula (Ia), 1.08 NaOH, 4.69 poloxamer 188)
[3] = beagle, 12 mg/kg, SC 12 mg/kg, 150 mg/mL solution (w/w %: 27.92 water, 58.04 PEG 300, 13.47 Formula (Ia), 1.1 NaOH)
[4] = beagle, 12 mg/kg, SC 12 mg/kg, 300 mg/mL solution (w/w %: 9.8 water, 65.0 PEG 300, 25.2 Formula (Ia))
[5] = beagle, 12 mg/kg, SC 12 mg/kg, 300 mg/mL solution (w/w %: 23.2 water, 50.0 PEG 300, 25.7 Formula (Ia), 1.1 NaOH)

`CC(C)(C#Cc1ccc(-c2ccc(Cl)c3c(NS(C)(=O)=O)nn(CC(F)(F)F)c23)c([C@H](Cc2cc(F)cc(F)c2)NC(=O)Cn2nc(C(F)(F)F)c3c2C(F)(F)[C@@H]2C[C@H]32)n1)S(C)(=O)=O` [Formula (Ia), N—((S)-1-(3-(4-chloro-3-(methylsulfonamido)-1-(2,2,2-trifluoroethyl)-1H-indazol-7-yl)-6-(3-methyl-3-(methylsulfonyl)but-1-yn-1-yl)pyridin-2-yl)-2-(3,5-difluorophenyl)ethyl)-2-((3bS,4aR)-5,5-difluoro-3-(trifluoromethyl)-3b,4,4a,5-tetrahydro-1H-cyclopropa[3,4]cyclopenta[1,2-c]pyrazol-1-yl)acetamide] showed an AUC(0-t) (Beagle, 6 mg/kg, SC 6 mg/kg, 100 mg/mL solution (w/w %: 28.36 water, 60.73 PEG 300, 9.23 sodium salt of Formula (Ia), 1.68 poloxamer 188), read-out: AUC0-24h) of 6.05 ± 3.43 µM·h, an AUC(0-t) (Beagle, 6 mg/kg, SC 6 mg/kg, 125 mg/mL solution (w/w %: 27.51 water, 58.92 PEG 300, 11.48 sodium salt of Formula (Ia), 2.09 poloxamer 188), read-out: AUC0-24h) of 4.71 ± 1.51 µM·h and an AUC(0-t) (Beagle, 6 mg/kg, SC 6 mg/kg, 125 mg/mL solution (w/w %: 27.51 water, 58.92 PEG 300, 11.48 sodium salt of Formula (Ia), 2.09 poloxamer 188), read-out: AUC0-14d) of 90.3 ± 3.5 µM·h. The Cmax [1] was 101 ± 44 nM, the Tmax [1] was 10 ± 15.6 days and the AUC(0-t) (Beagle, 6 mg/kg, SC 6 mg/kg, 150 mg/mL solution (w/w %: 26.6 water, 56.97 PEG 300, 13.39 Formula (Ia), 0.57 NaOH, 2.49 poloxamer 188), read-out: AUC0-56d) was 69 ± 13.9 µM·h. It also gave an AUC(0-t) (Beagle, 6 mg/kg, SC 6 mg/kg, 150 mg/mL solution (w/w %: 26.6 water, 56.97 PEG 300, 13.39 Formula (Ia), 0.57 NaOH, 2.49 poloxamer 188), read-out: AUC0-84d) of 76.6 ± 8.5 µM·h, a concentration at 56 d [1] of 24.9 nM and an AUC(0-t) (beagle, 6 mg/kg, SC 6 mg/kg, 50 mg/mL solution (w/w %: 30.07 water, 64.40 PEG 300, 4.68 sodium salt of Formula (Ia), 0.85 poloxamer 188), read-out: AUC0-24h) of 14.7 ± 4.4 µM·h. It also gave a concentration at 14 d (beagle, 6 mg/kg, SC 6 mg/kg, 50 mg/mL solution (w/w %: 30.07 water, 64.40 PEG 300, 4.68 sodium salt of Formula (Ia), 0.85 poloxamer 188), read-out: C14d) of 37.2 ± 13.9 nM, an AUC(0-t) (beagle, 6 mg/kg, SC 6 mg/kg, 75 mg/mL solution (w/w %: 29.21 water, 62.55 PEG 300, 6.97 sodium salt of Formula (Ia), 1.68 poloxamer 188), read-out: AUC0-24h) of 5.88 ± 1.95 µM·h and an AUC(0-t) (beagle, 6 mg/kg, SC 6 mg/kg, 75 mg/mL solution (w/w %: 29.21 water, 62.55 PEG 300, 6.97 sodium salt of Formula (Ia), 1.68 poloxamer 188), read-out: AUC0-28d) of 101 ± 11 µM·h. It also gave a concentration at 21 d (beagle, 6 mg/kg, SC 6 mg/kg, 75 mg/mL solution (w/w %: 29.21 water, 62.55 PEG 300, 6.97 sodium salt of Formula (Ia), 1.68 poloxamer 188), read-out: C21d) of 40 ± 24 nM, a Cmax [2] of 69 ± 22 nM and an AUC(0-t) (beagle, 6 mg/kg, SC 6 mg/kg, 300 mg/mL solution (w/w %: 21.97 water, 47.05 PEG 300, 25.21 Formula (Ia), 1.08 NaOH, 4.69 poloxamer 188), read-out: AUC0-56d) of 55.4 ± 20.8 µM·h. For the same molecule, the concentration at 56 d [2] was 30.4 ± 7.2 nM, the Cmax [3] was 312 ± 93 nM and the Tmax [3] was 16.3 ± 4.04 days. It also gave a concentration at 56 d [3] of 22.9 ± 5.6 nM, a Cmax [4] of 133 ± 10 nM and a Tmax [4] of 14 days. The AUC(0-t) (beagle, 12 mg/kg, SC 12 mg/kg, 300 mg/mL solution (w/w %: 9.8 water, 65.0 PEG 300, 25.2 Formula (Ia)), read-out: AUC0-126d) was 139 ± 8 µM·h, the concentration at 84 d (beagle, 12 mg/kg, SC 12 mg/kg, 300 mg/mL solution (w/w %: 9.8 water, 65.0 PEG 300, 25.2 Formula (Ia)), read-out: C84d) was 21.7 ± 6.5 nM and the Cmax [5] was 267 ± 176 nM. The Tmax [5] was 12.3 ± 9.62 days, the AUC(0-t) (beagle, 12 mg/kg, SC 12 mg/kg, 300 mg/mL solution (w/w %: 23.2 water, 50.0 PEG 300, 25.7 Formula (Ia), 1.1 NaOH), read-out: AUC0-56d) was 166 ± 110 µM·h and the concentration at 56 d [5] was 29.6 ± 30.8 nM. The AUC(0-t) (beagle, 12 mg/kg, SC 12 mg/kg, 400 mg/mL solution in 10% ethanol, 13% water, 77% PEG 200, read-out: AUC0-84d) was 89.6 ± 10.1 µM·h.
